In brackets after ≈: the same amount, converted by molar mass. Where two headings read alike, the source gives them in different places.
Key:
Type in all cases: cell-based
S. aureus A-9537 = experiment: In vitro MIC by tube dilution, S. aureus A-9537; conditions: Staphylococcus aureus, read-out: MIC
E. cloacae A-9656 = experiment: In vitro MIC by tube dilution, E. cloacae A-9656; conditions: Enterobacter cloacae, A9656, E. cloacae A-9656; read-out: MIC
[1] = test system: S. aureus A-9606 (Pen-res.); experiment: In vitro MIC by tube dilution, S. aureus A-9606 (Pen-res.); conditions: Staphylococcus aureus, S. aureus A-9606 (Pen-res); read-out: MIC
S. faecalis A20688 = experiment: In vitro MIC by tube dilution, S. faecalis A20688; conditions: Enterococcus faecalis, A20688, S. faecalis A20688; read-out: MIC
P. aeruginosa A-9843A = experiment: In vitro MIC by tube dilution, P. aeruginosa A-9843A; conditions: Pseudomonas aeruginosa, A9843A, P. aeruginosa A-9843a; read-out: MIC
E. cloacae A-9659 = experiment: In vitro MIC by tube dilution, E. cloacae A-9659; conditions: Enterobacter cloacae, A9659, E. cloacae A-9659; read-out: MIC
S. marcescens A20019 = experiment: In vitro MIC by tube dilution, S. marcescens A20019; conditions: Serratia marcescens, read-out: MIC
K. pneumoniae A-9664 = experiment: In vitro MIC by tube dilution, K. pneumoniae A-9664; conditions: Klebsiella pneumoniae, A9664, read-out: MIC
E. coli A15119 = experiment: In vitro MIC by tube dilution, E. coli A15119; conditions: Escherichia coli, read-out: MIC
P. mirabilis A-9900 = experiment: In vitro MIC by tube dilution, P. mirabilis A-9900; conditions: Proteus mirabilis, A9900, P. mirabilis A-9900; read-out: MIC
E. coli A20341-1 = experiment: In vitro MIC by tube dilution, E. coli A20341-1; conditions: Escherichia coli, A203411, read-out: MIC
P. morganii A15153 = experiment: In vitro MIC by tube dilution, P. morganii (M. morganii) A15153; conditions: Morganella morganii, read-out: MIC
K. pneumoniae A20468 = experiment: In vitro MIC by tube dilution, K. pneumoniae A20468; conditions: Klebsiella pneumoniae, read-out: MIC
P. rettgeri A22424 = experiment: In vitro MIC by tube dilution, P. rettgeri A22424; conditions: Providencia rettgeri, read-out: MIC
P. aeruginosa A21213 = experiment: In vitro MIC by tube dilution, P. aeruginosa A21213; conditions: Pseudomonas aeruginosa, read-out: MIC
S. pneumoniae A-9585 = experiment: In vitro MIC by tube dilution, S. pneumoniae A-9585; conditions: Streptococcus pneumoniae, A9585, S. pneumoniae A-9585; read-out: MIC
S. pyogenes A9604 = experiment: In vitro MIC by tube dilution, S. pyogenes A9604; conditions: Streptococcus pyogenes, A9604, S. pyogenes A-9604; read-out: MIC
[2] = A9537, S. aureus A-9537 +50% serum
[3] = A9537, S. aureus A-9537, no serum

| Structure (SMILES) | MIC (S. aureus A-9537; [2]) [µg/mL] | MIC (S. aureus A-9537; [3]) [µg/mL] | MIC (E. cloacae A-9656) [µg/mL] | MIC [1] [µg/mL] | MIC (S. faecalis A20688) [µg/mL] | MIC (P. aeruginosa A-9843A) [µg/mL] | MIC (E. cloacae A-9659) [µg/mL] | MIC (S. marcescens A20019) [µg/mL] | MIC (K. pneumoniae A-9664) [µg/mL] | MIC (E. coli A15119; E. coli A15119) [ng/mL] | MIC (P. mirabilis A-9900) [µg/mL] | MIC (E. coli A20341-1) [ng/mL] | MIC (P. morganii A15153; A15153, M. morganii A15153) [µg/mL] | MIC (K. pneumoniae A20468; A20468, K. pneumoniae A20468) [µg/mL] | MIC (P. rettgeri A22424; A22424, P. rettgeri A22424) [µg/mL] | MIC (S. pneumoniae A-9585) [ng/mL] | MIC (S. pyogenes A9604) [ng/mL] | also measured |
| --- | --- | --- | --- | --- | --- | --- | --- | --- | --- | --- | --- | --- | --- | --- | --- | --- | --- | --- |
| C[C@@H](O)[C@H]1C(=O)N2C(C(=O)[O-])=C(SCc3n(Cc4ccccc4)cc[n+]3C)C[C@H]12 [Example 13, 3-(N-Methyl-N'-benzylimidazole-2-yl-methanethio)-6α-[1-(R)-hydroxyethyl]-7-oxo-1-azabicyclo(3.2.0)hept-2-ene-2-carboxylate] | 0.016 (≈ 0.0387 µM) | 0.008 (≈ 0.0193 µM) | 0.03 (≈ 0.0726 µM) | 0.008 (≈ 0.0193 µM) | 0.13 (≈ 0.314 µM) | 32 (≈ 77.4 µM) | 0.06 (≈ 0.145 µM) | 0.016 (≈ 0.0387 µM) | 0.03 (≈ 0.0726 µM) | 4 (≈ 0.00967 µM) | 0.016 (≈ 0.0387 µM) | 8 (≈ 0.0193 µM) | 0.016 (≈ 0.0387 µM) | 0.13 (≈ 0.314 µM) | – | – | – | – |
| Cc1c(CSC2=C(C(=O)[O-])N3C(=O)[C@H]([C@@H](C)O)[C@H]3C2)ccc[n+]1C [Example 14, 3-(2-Methyl-N-methylpyridine-3-yl-methanethio)-6α-[1-(R)-hydroxyethyl]-7-oxo-1-azabicyclo(3.2.0)hept-2-ene-2-carboxylate] | 0.03 (≈ 0.0861 µM) | 0.008 (≈ 0.023 µM) | 0.03 (≈ 0.0861 µM) | 0.016 (≈ 0.0459 µM) | 0.13 (≈ 0.373 µM) | 8 (≈ 23 µM) | 0.03 (≈ 0.0861 µM) | 0.016 (≈ 0.0459 µM) | 0.03 (≈ 0.0861 µM) | 8 (≈ 0.023 µM) | 0.016 (≈ 0.0459 µM) | 8 (≈ 0.023 µM) | – | – | 0.06 (≈ 0.172 µM) | – | – | MIC (P. morganii A15153; M. morganii A15153): 0.03 µg/mL (≈ 0.0861 µM); MIC (K. pneumoniae A20468; K. pneumoniae A20468): 0.03 µg/mL (≈ 0.0861 µM) |
| C[C@@H](O)[C@H]1C(=O)N2C(C(=O)[O-])=C(SCc3cn(C)n[n+]3C)C[C@H]12 [Example 15 "A", 3-[4-(N,N-dimethyl-1,2,3-triazolium)methylthio]-6α-[1-(R)-hydroxyethyl]-7-oxo-1-azabicyclo(3.2.0)hept-2-ene-2-carboxylate] | 0.03 (≈ 0.0887 µM) | 0.03 (≈ 0.0887 µM) | 0.016 (≈ 0.0473 µM) | 0.004 (≈ 0.0118 µM) | 0.13 (≈ 0.384 µM) | 0.5 (≈ 1.48 µM) | 0.016 (≈ 0.0473 µM) | 0.008 (≈ 0.0236 µM) | 0.008 (≈ 0.0236 µM) | 4 (≈ 0.0118 µM) | 0.008 (≈ 0.0236 µM) | 4 (≈ 0.0118 µM) | – | – | – | – | – | MIC (P. aeruginosa A21213; P. aeruginosa A21213): 0.03 µg/mL (≈ 0.0887 µM); MIC (P. morganii A15153; M. morganii A15153): 0.03 µg/mL (≈ 0.0887 µM); MIC (K. pneumoniae A20468; K. pneumoniae A20468): 0.008 µg/mL (≈ 0.0236 µM); MIC (P. rettgeri A22424; P. rettgeri A22424): 0.03 µg/mL (≈ 0.0887 µM) |
| C[C@@H](O)[C@H]1C(=O)N2C(C(=O)[O-])=C(SCc3cs[n+](C)n3)C[C@H]12 [Example 16, (5R,6S) 6-(1R-hydroxyethyl)-3-(2-methyl-1,2,3-thiadiazolium-4-ylmethylthio)-7-oxo-1-azabicyclo[3.2.0]hept-2-ene-2-carboxylate] | 0.03 (≈ 0.0879 µM) | 0.008 (≈ 0.0234 µM) | 0.06 (≈ 0.176 µM) | 0.016 (≈ 0.0469 µM) | – | 0.25 (≈ 0.732 µM) | 0.06 (≈ 0.176 µM) | 0.06 (≈ 0.176 µM) | 0.06 (≈ 0.176 µM) | – | 0.06 (≈ 0.176 µM) | 16 (≈ 0.0469 µM) | – | 0.06 (≈ 0.176 µM) | – | 2 (≈ 0.00586 µM) | 2 (≈ 0.00586 µM) | MIC (E. coli A15119; A15119, E. coli A15119): 16 ng/mL (≈ 0.0469 µM) |
| C[C@@H](O)[C@H]1C(=O)N2C(C(=O)[O-])=C(SCc3cn(C)n[n+]3CC(=O)O)C[C@H]12 [Example 17, Potassium 3-[5-(1-carboxylatomethyl-3-methyl-1,2,3-triazolium)-methanethio]-6α-[1-(R)-hydroxyethyl]-7-oxo-1-azabicyclo[3.2.0]hept-2-ene-2-carboxylate] | – | – | – | – | – | > 63 | – | 0.13 | 0.13 | – | 0.13 | – | – | – | – | 16 | 16 | – |
| C[C@@H](O)[C@H]1C(=O)N2C(C(=O)[O-])=C(SCc3n(C)nc[n+]3C)C[C@H]12 [Example 19, 3-[5-(1,4-Dimethyl-1,2,4-triazolium)methanethio]-6α-[1-(R)-hydroxyethyl]-7-oxo-1-azabicyclo[3.2.0]hept-2-ene-2-carboxylate] | – | 0.004 (≈ 0.0118 µM) | 0.03 (≈ 0.0887 µM) | 0.016 (≈ 0.0473 µM) | – | – | 0.03 (≈ 0.0887 µM) | 0.03 (≈ 0.0887 µM) | 0.03 (≈ 0.0887 µM) | 8 (≈ 0.0236 µM) | 0.03 (≈ 0.0887 µM) | 8 (≈ 0.0236 µM) | 0.06 (≈ 0.177 µM) | 0.06 (≈ 0.177 µM) | 0.13 (≈ 0.384 µM) | 2 (≈ 0.00591 µM) | 2 (≈ 0.00591 µM) | MIC (P. aeruginosa A21213; A21213, P. aeruginosa A21213): 0.06 µg/mL (≈ 0.177 µM) |
| C[C@@H](O)[C@H]1C(=O)N2C(C(=O)[O-])=C(SCc3n[n+](C)nn3C)C[C@H]12 [Example 20, (1'R,5R,6S) 3-[(1,3-dimethyl-5-tetrazolium)-methylthio]-6-(1-hydroxyethyl)-7-oxo-1-azabicyclo[3.2.0]hept-2-ene-2-carboxylate] | 2 (≈ 5.89 µM) | – | – | > 125 | – | 32 (≈ 94.3 µM) | 8 (≈ 23.6 µM) | – | – | – | – | – | 8 (≈ 23.6 µM) | – | 8 (≈ 23.6 µM) | 60 (≈ 0.177 µM) | 130 (≈ 0.383 µM) | – |

Reference: patent US4746736A, “Carbapenem antibiotics” (priority 1986, dated 1988)
